Reference: ChEMBL document CHEMBL3124936, “Unusual fernane and gammacerane glycosides from the aerial parts of Spergula fallax” (J Nat Prod, 2014)
pIC50: −log10 of the molar value.

Legend:
HeLa = test: Growth inhibition of human HeLa cells assessed as inhibition of cell viability after 72 hrs by MTT assay; type: functional, cell-based
[1] = Growth inhibition of human DLD1 cells assessed as inhibition of cell viability after 72 hrs by MTT assay; type: functional, cell-based; settings: DLD-1, 72 h

Structure (SMILES)	pIC50 (HeLa)	pIC50 [1]
CC(=O)O[C@H]1CO[C@@H](O[C@@H]2C[C@]3(C)[C@H](CC[C@@H]4[C@@]5(C)CC[C@H](O)C(C)(C)[C@@H]5[C@@H](O)C[C@]43C)[C@@]3(C)C[C@@H](O[C@@H]4O[C@H](CO)[C@@H](O)[C@H](O)[C@H]4O)[C@H](O)C(C)(C)[C@H]23)[C@H](O)[C@H]1O	4.28	4.28
COc1cc([C@@H]2c3cc4c(cc3[C@@H](O[C@@H]3O[C@@H]5CO[C@@H](C)O[C@H]5[C@H](O)[C@H]3O)[C@H]3COC(=O)[C@H]23)OCO4)cc(OC)c1O [ETOPOSIDE]	4.80	4.70
